Results on three compounds are retold here after patent US20120245505A1, “INTRACAMERAL DEVICES FOR SUSTAINED DELIVERY” (priority 2009, published 2012).

A short description of data set [1]: Release of NaF from implanted intracameral device, HRA imaging. Type of data set: in vivo, New Zealand white (NZW) rabbit. To be noted: rabbit eye. Here is the method:
FIGS. 11A-D illustrate a series of Heidelberg retina angiograph (HRA) images of diffusion from an implanted device. FIGS. 11A-D illustrate HRA images after 2 minutes, 5 minutes, 10 minutes and 20 minutes.
A device in accordance with the present disclosure was loaded with sodium fluorescein (NaF) in a polymeric delivery implant. A New Zealand white (NZW) rabbit had this device implanted in the sub-Tenon's space with the inner port extending into the anterior chamber.
FIG. 11 illustrates that in as little as 2 minutes after implantation, the NaF had begun to disperse into the anterior chamber. By 20 minutes, the NaF had substantially dispersed into most of the anterior chamber.

The subject of the next data set is glaucoma. Description: Treatment of glaucoma with bimatoprost-coated intracameral implant. Format: in vivo, human. To be noted: person, intracameral implant coated with sustained release formulation, after 2 weeks. An excerpt:
They have previously received topical therapy, but to no avail. Their vision is worsening as time progresses. […] After 2 weeks, the IOP is reduced.

In data set [2] the test system is age-related macular degeneration. Description: Treatment of macular degeneration with bimatoprost-coated intracameral implant. Format: in vivo, human. To be noted: person, end of 7-year follow up. An excerpt:
A person has age-related macular degeneration and cataracts in both eyes. […] At the end of a 7-year follow up period the patient can have maintained vision in the both eyes of at least 20/32

A further data set relates to iris. As to conditions: topical latanoprost (XALATAN); cited from earlier work.

The structures appear in SMILES notation.

Turning to `O=C([O-])c1ccccc1-c1c2ccc(=O)cc-2oc2cc([O-])ccc12.[Na+].[Na+]` [NaF, sodium fluorescein], in data set [1] (FIG. 11, HRA images), the “time after implantation at which NaF had begun to disperse into the anterior chamber” value is not above 2 min and the “time by which NaF had substantially dispersed into most of the anterior chamber” value was not above 20 min. Also, in data set [1] (device with polymeric delivery implant in sub-Tenon's space, inner port extending into anterior chamber), the “release of NaF into the anterior chamber (HRA imaging)” value was “sustained-release of NaF into the anterior chamber”.

As to `CCNC(=O)CCC/C=C\C[C@@H]1[C@@H](/C=C/[C@@H](O)CCc2ccccc2)[C@H](O)C[C@@H]1O` [bimatoprost], the IOP result with glaucoma is reported as “reduced”. Also, the “maintained vision in both eyes” value in data set [2] is on record as “at least 20/32”.

For the compound `CC(C)OC(=O)CCC/C=C\C[C@@H]1[C@@H](CC[C@@H](O)CCc2ccccc2)[C@H](O)C[C@@H]1O` [latanoprost], the “increase in brown pigment in the iris” value in the data set on iris is on record as 5-15 % of human eyes.
